Data set [1] has as its system Staphylococcus aureus. Kind of data set: Antibacterial activity against Methicillin-resistant Staphylococcus aureus ATCC 43300 incubated for 18 hrs by Luria-Bertani broth based plate reader analysis. It is filed as functional.
Data set [2] has as its system HEK293. Description: Cytotoxicity against HEK293 cells assessed as reduction in cell viability at 40 uM incubated for 72 hrs by resazurin based fluorescence plate reader analysis. Format: toxicity. The following applies: human, hek293, 72 h.
Data set [3] relates to Staphylococcus aureus. Kind of data set: Antibacterial activity against Methicillin-sensitive Staphylococcus aureus ATCC 25923 incubated for 18 hrs by Luria-Bertani broth based plate reader analysis. It is filed as functional.
Another data set deals with Plasmodium falciparum. Description: Antiplasmodial activity against Plasmodium falciparum 3D7 incubated for 72 hrs by DAPI staining based analysis. It is filed as functional, organism-based. The following applies: 3D7, 72 h.
A short description of data set [4]: Cytotoxicity against HEK293 cells assessed as inhibition of cell growth at 5 uM incubated for 72 hrs by resazurin based fluorescence plate reader analysis relative to control. The following applies: human. Format: toxicity.
Data set [5] can be described thus: Cytotoxicity against HEK293 cells assessed as inhibition of cell growth at 40 uM incubated for 72 hrs by resazurin based fluorescence plate reader analysis relative to control. Format: toxicity. The following applies: human.
Data set [6] relates to HEK293. Description: Cytotoxicity against HEK293 cells assessed as reduction in cell viability at 2.5 uM incubated for 72 hrs by resazurin based fluorescence plate reader analysis. The note with it: human, hek293, 72 h. Format: toxicity.

The structures appear in SMILES notation. In brackets after ≈: the same amount, converted by molar mass.

On to `C/C1=C\[C@H]2[C@@H](CC[C@]3(C)Oc4c(C=O)c(O)c(C(=O)CC(C)C)c(O)c4C[C@H]3CC1)C2(C)C`, for which the MIC50 against Staphylococcus aureus [1] and with Staphylococcus aureus [3] was more than 75 µM in each case. Moreover, the Activity result in the data set with HEK293 [2] is “Non-Toxic”. In the data set with Plasmodium falciparum, the IC50 came to 23.6 µM.

On to `C/C1=C\[C@@H]2[C@H](CC[C@@]3(C)Oc4c(c(O)c(C=O)c(O)c4C(=O)CC(C)C)C[C@@H]3CC1)C2(C)C`, for which the MIC50 against Staphylococcus aureus [1] and in the data set on Staphylococcus aureus [3] was 75 µM (≈ 34.1 µg/mL) each time. Also, in the data set with HEK293 [2], the Activity entry is “Non-Toxic”. Besides, the IC50 in the data set with Plasmodium falciparum stood at 15.7 µM.

Regarding `COc1ccc(C[C@H](N)C(=O)N[C@H]2[C@@H](O)[C@H](n3cnc4c(N(C)C)ncnc43)O[C@@H]2CO)cc1` [PUROMYCIN], the inhibition at 72 h, 5 µM in data set [4] stood at 0.89%. The IC50 with Plasmodium falciparum was determined as 0.08 µM.

On to `C=C(C)[C@@H]1C=C2[C@@H](C)CC[C@@H](Cc3c(O)c(C=O)c(O)c(C(=O)CC(C)C)c3O)[C@]2(C)CC1`, for which the MIC50 in the data set on Staphylococcus aureus [1] and in the data set with Staphylococcus aureus [3] was 4.7 µM (≈ 2.14 µg/mL) in each case. In the data set with Plasmodium falciparum, this compound registered an IC50 of 1.3 µM. Besides, in data set [5], the inhibition at 72 h, 40 µM is more than 85%.

In the case of `C[C@H]1[C@H](OC(=O)CCC(=O)O)O[C@@H]2O[C@@]3(C)CC[C@H]4[C@H](C)CC[C@@H]1[C@@]24OO3` [ARTESUNATE], the Activity result with HEK293 [6] is given as “Non-Toxic”. Moreover, 0.003 µM corresponded to half-maximal inhibition in the data set with Plasmodium falciparum (IC50).

Regarding `CC(=O)O[C@H]1C[C@@]2(C)[C@@H](C[C@@H](O)[C@H]3[C@@]4(C)CC[C@@H](O)[C@@H](C)[C@@H]4CC[C@@]32C)/C1=C(\CCC=C(C)C)C(=O)O` [FUSIDIC ACID], the MIC50 in the data set on Staphylococcus aureus [1] and against Staphylococcus aureus [3] was less than 0.12 µM each time.

Consider `CCc1nc(N)nc(N)c1-c1ccc(Cl)cc1` [PYRIMETHAMINE], for which 0.02 µM corresponded to half-maximal inhibition in the data set with Plasmodium falciparum (IC50). Further, the inhibition at 72 h, 40 µM in data set [5] is 33.4%.
